From US20030083484A1, “Antisense modulation of short heterodimer partner-1 expression” (priority 2001, published 2003)
Strand notation (5' to 3'): a small letter for the sugar, then the base; units joined by * are phosphorothioate-linked, units joined directly phosphodiester-linked; [ ] holds rarer units or linkages, { } end groups; capitals alone tell only the bases. e = 2'-O-(2-methoxyethyl) (MOE); [5mC] = 5-methylcytosine; d = 2'-deoxy (DNA)

Test system: mouse short heterodimer partner-1 mRNA
Assay: Inhibition of mouse short heterodimer partner-1 mRNA levels in primary hepatocytes, quantitative real-time PCR
Assay type: cell-based
Design: concentration or dose not given beside the values
Conditions: averages from two experiments
Experimental: Primary mouse hepatocytes were prepared from CD-1 mice purchased from Charles River Labs (Wilmington, Mass.) and were routinely cultured in Hepatoyte Attachment Media (Gibco) supplemented with 10% Fetal Bovine Serum (Gibco/Life Technologies, Gaithersburg, Md.), 250 nM dexamethasone (Sigma), and 10 nM bovine insulin (Sigma). Cells were seeded into 96-well plates (Falcon-Primaria #3872) at a density of 10000 cells/well for use in RT-PCR analysis.
Cells were harvested 16-24 hours after oligonucleotide treatment.
Vacuum was applied for 15 seconds. […] The elution step was repeated with an additional 60 μL water.
Total RNA is quantified using RiboGreen™ RNA quantification reagent from Molecular Probes.
Probes and primers to mouse short heterodimer partner-1 were designed to hybridize to a mouse short heterodimer partner-1 sequence, using published sequence information (GenBank accession number L75567, incorporated herein as SEQ ID NO: 10).
All cytidine residues are 5-methylcytidines. […] Data are averages from two experiments. If present, “N.D.” indicates “no data”.

Substance | % INHIB (inhibition of mouse short heterodimer partner-1 mRNA levels)
148275 (antisense eT*eG*eT*eG*eG*d[5mC]*d[5mC]*dG*dG*dT*d[5mC]*dT*dG*dA*dT*eG*eG*e[5mC]*eT*eG) [compound 148275] | 28%
ISIS 148262: 2′-MOE gapmer, phosphorothioate, TGACTGGCCGGAGCTCATGG, targets mouse short heterodimer partner-1 RNA (antisense eT*eG*eA*e[5mC]*eT*dG*dG*d[5mC]*d[5mC]*dG*dG*dA*dG*d[5mC]*dT*e[5mC]*eA*eT*eG*eG) | at least 50%
148271 (antisense eA*eA*e[5mC]*e[5mC]*e[5mC]*dA*dA*dG*d[5mC]*dA*dG*dG*dA*dA*dG*eA*eG*eA*eG*eG) [compound 148271] | 56%
148281 (antisense eA*eG*eA*eA*eG*dA*dG*dA*dT*d[5mC]*dT*dA*d[5mC]*d[5mC]*dA*eG*eA*eA*eG*eG) [compound 148281] | 48%
148268 (antisense eT*eG*e[5mC]*eA*eG*dG*dT*dG*d[5mC]*dG*dG*dT*dG*d[5mC]*dG*eG*eA*eG*e[5mC]*eA) [compound 148268] | 19%
ISIS 148284: 2′-MOE gapmer, phosphorothioate, GAGGCACCAGACTCCATTCC, targets mouse short heterodimer partner-1 RNA (antisense eG*eA*eG*eG*e[5mC]*dA*d[5mC]*d[5mC]*dA*dG*dA*d[5mC]*dT*d[5mC]*d[5mC]*eA*eT*eT*e[5mC]*e[5mC]) | at least 50%
148264 (antisense eG*e[5mC]*eA*eT*eA*d[5mC]*dA*dG*dA*dA*dT*dA*dG*dT*d[5mC]*eG*eG*eA*e[5mC]*eG) [compound 148264] | 60%
148265 (antisense eA*eG*eG*eT*eG*d[5mC]*dA*dA*d[5mC]*dG*dG*dG*d[5mC]*d[5mC]*dT*eG*eG*eT*e[5mC]*e[5mC]) [compound 148265] | 41%
148262 (antisense eT*eG*eA*e[5mC]*eT*dG*dG*d[5mC]*d[5mC]*dG*dG*dA*dG*d[5mC]*dT*e[5mC]*eA*eT*eG*eG) [compound 148262] | 50%
148272 (antisense e[5mC]*eG*eG*eA*eG*d[5mC]*d[5mC]*dT*d[5mC]*dA*dG*d[5mC]*d[5mC]*dA*d[5mC]*e[5mC]*eT*e[5mC]*eG*eA) [compound 148272] | 69%
ISIS 148272: 2′-MOE gapmer, phosphorothioate, CGGAGCCTCAGCCACCTCGA, targets mouse short heterodimer partner-1 RNA (antisense e[5mC]*eG*eG*eA*eG*d[5mC]*d[5mC]*dT*d[5mC]*dA*dG*d[5mC]*d[5mC]*dA*d[5mC]*e[5mC]*eT*e[5mC]*eG*eA) | at least 50%
ISIS 148269: 2′-MOE gapmer, phosphorothioate, TAGGACATCCAAGGCCTCCC, targets mouse short heterodimer partner-1 RNA (antisense eT*eA*eG*eG*eA*d[5mC]*dA*dT*d[5mC]*d[5mC]*dA*dA*dG*dG*d[5mC]*e[5mC]*eT*e[5mC]*e[5mC]*e[5mC]) | at least 50%
148285 (antisense eA*e[5mC]*eA*eG*eT*dT*dA*dG*dT*dA*dG*dT*dG*dT*dA*e[5mC]*eA*e[5mC]*eT*eG) [compound 148285] | 50%
ISIS 148271: 2′-MOE gapmer, phosphorothioate, AACCCAAGCAGGAAGAGAGG, targets mouse short heterodimer partner-1 RNA (antisense eA*eA*e[5mC]*e[5mC]*e[5mC]*dA*dA*dG*d[5mC]*dA*dG*dG*dA*dA*dG*eA*eG*eA*eG*eG) | at least 50%
148282 (antisense eT*eG*eA*eT*eG*dT*d[5mC]*dA*dA*d[5mC]*dG*dT*d[5mC]*dT*d[5mC]*e[5mC]*e[5mC]*eA*eT*eG) [compound 148282] | 22%
ISIS 148286: 2′-MOE gapmer, phosphorothioate, AGTCATCAAGGGCTTGCTGG, targets mouse short heterodimer partner-1 RNA (antisense eA*eG*eT*e[5mC]*eA*dT*d[5mC]*dA*dA*dG*dG*dG*d[5mC]*dT*dT*eG*e[5mC]*eT*eG*eG) | at least 50%
ISIS 148287: 2′-MOE gapmer, phosphorothioate, GTTCTGTACAAAGTCAGGAG, targets mouse short heterodimer partner-1 RNA (antisense eG*eT*eT*e[5mC]*eT*dG*dT*dA*d[5mC]*dA*dA*dA*dG*dT*d[5mC]*eA*eG*eG*eA*eG) | at least 50%

Substance | % INHIB (inhibition of mouse short heterodimer partner-1 mRNA levels)
ISIS 148264: 2′-MOE gapmer, phosphorothioate, GCATACAGAATAGTCGGACG, targets mouse short heterodimer partner-1 RNA (antisense eG*e[5mC]*eA*eT*eA*d[5mC]*dA*dG*dA*dA*dT*dA*dG*dT*d[5mC]*eG*eG*eA*e[5mC]*eG) | at least 50%
148263 (antisense eA*e[5mC]*e[5mC]*eT*eG*d[5mC]*dA*dG*dA*dG*d[5mC]*d[5mC]*d[5mC]*dT*dG*eG*e[5mC]*eA*eT*eG) [compound 148263] | 0%
ISIS 148276: 2′-MOE gapmer, phosphorothioate, AGAAAGACTCCAGGCAGCGC, targets mouse short heterodimer partner-1 RNA (antisense eA*eG*eA*eA*eA*dG*dA*d[5mC]*dT*d[5mC]*d[5mC]*dA*dG*dG*d[5mC]*eA*eG*e[5mC]*eG*e[5mC]) | at least 50%
148270 (antisense e[5mC]*eA*e[5mC]*eT*e[5mC]*dT*dA*dG*d[5mC]*dA*dG*d[5mC]*d[5mC]*dG*d[5mC]*e[5mC]*eG*e[5mC]*eT*eG) [compound 148270] | 46%
148280 (antisense eG*eT*eG*e[5mC]*e[5mC]*dT*dG*dG*dA*dA*dT*dG*dT*dT*d[5mC]*eT*eT*eG*eA*eG) [compound 148280] | 33%
148279 (antisense eG*eG*eT*eA*eG*dA*dG*dG*d[5mC]*d[5mC]*dA*dT*dG*dA*dG*eG*eA*eG*eG*eA) [compound 148279] | 43%
148276 (antisense eA*eG*eA*eA*eA*dG*dA*d[5mC]*dT*d[5mC]*d[5mC]*dA*dG*dG*d[5mC]*eA*eG*e[5mC]*eG*e[5mC]) [compound 148276] | 56%
148274 (antisense eG*eG*e[5mC]*eA*e[5mC]*d[5mC]*d[5mC]*dT*dG*dG*dG*dT*dA*d[5mC]*d[5mC]*eG*e[5mC]*eT*eG*e[5mC]) [compound 148274] | 22%
148267 (antisense e[5mC]*eA*e[5mC]*eA*eG*dA*d[5mC]*dG*d[5mC]*dA*d[5mC]*dA*dG*dG*d[5mC]*e[5mC]*eG*e[5mC]*eT*eG) [compound 148267] | 28%
148277 (antisense eT*eT*e[5mC]*eA*eG*dG*dT*dA*d[5mC]*dG*d[5mC]*dA*dT*dA*d[5mC]*eT*e[5mC]*e[5mC]*eT*eT) [compound 148277] | 62%
148266 (antisense eA*eG*eG*e[5mC]*eA*dG*dT*dG*dG*d[5mC]*dT*dG*dT*dG*dA*eG*eA*eT*eG*e[5mC]) [compound 148266] | 44%
ISIS 148285: 2′-MOE gapmer, phosphorothioate, ACAGTTAGTAGTGTACACTG, targets mouse short heterodimer partner-1 RNA (antisense eA*e[5mC]*eA*eG*eT*dT*dA*dG*dT*dA*dG*dT*dG*dT*dA*e[5mC]*eA*e[5mC]*eT*eG) | at least 50%
ISIS 148277: 2′-MOE gapmer, phosphorothioate, TTCAGGTACGCATACTCCTT, targets mouse short heterodimer partner-1 RNA (antisense eT*eT*e[5mC]*eA*eG*dG*dT*dA*d[5mC]*dG*d[5mC]*dA*dT*dA*d[5mC]*eT*e[5mC]*e[5mC]*eT*eT) | at least 50%
148269 (antisense eT*eA*eG*eG*eA*d[5mC]*dA*dT*d[5mC]*d[5mC]*dA*dA*dG*dG*d[5mC]*e[5mC]*eT*e[5mC]*e[5mC]*e[5mC]) [compound 148269] | 59%
148273 (antisense eT*eG*eG*e[5mC]*eT*dT*d[5mC]*d[5mC]*dT*d[5mC]*dT*dA*dG*d[5mC]*dA*eG*eG*eA*eT*e[5mC]) [compound 148273] | 33%
148278 (antisense e[5mC]*eA*e[5mC]*eA*eG*dT*dG*d[5mC]*d[5mC]*d[5mC]*dA*dG*dT*dG*dA*eG*e[5mC]*e[5mC]*eT*e[5mC]) [compound 148278] | 36%
